Tests used:
Type in all cases: cell-based
anaerobes = assay: Kill study: ATP test of anaerobically captured oil field influent water (LuminUltra QUO-M kit); set-up: ATP readings: unit not given here
Experimental: In an oil and gas field in the western USA, MCA was tested in comparison with methylene bis(thiocyanate), (MTC) in a weekly batch treatment and is fed for 2-3 hours at 200 ppm (as product).
A solution of MCA Working Solution was prepared using Busan 1474 and Bulab 6004 (high alkalinity bleach). The reaction of these two components diluted in water at the proper equimolar ratios and proper pH produces a stable high concentration of biocide. A known concentration of MCA was added to a specific volume of influent water which had to be captured under anaerobic conditions and kept in an incubation chamber when not being used because the primary organisms of interest (anaerobes) are very susceptible to both oxygen and temperature changes. Therefore, as soon as the samples were collected, the head space of the bottles were purged with Nitrogen and then sealed with a rubber stopper (which will permit the insertion of a hypodermic needle) and then crimped into place with an aluminium seal.
Owing to the fact that there is significant oil in the water, the organisms are coated with a fine layer of organic material, thus necessitating the usage of an ATP test kit which washes away the layer of oil prior to ATP testing. The kit employed for this testing is manufactured by LuminUltra and is identified as the Quench Gone Organic-Modified (QUO-M) test kit.
Furthermore, in order to ensure that adequate MCA was present to penetrate this oil layer (and have an apples to apples comparison in performance), the MCA was dosed at the same level as the MTC at a concentration of 200 ppm.
The MCA was tested at intervals between this period (30, 60, 180, and 240 minutes).
Bottles were collected and the initial concentration of ATP for each bottle was measured and then dosed with 200 ppm of MCA and MTC respectively and one bottle was not dosed to serve as a growth control.

[1] = tested on: total biological organism concentration; assay: ATP test of biocides in produced water from oil field water/oil/gas separator (LuminUltra QBG kit)
Text: A one-liter sample of water was obtained from the mechanical water/oil/gas separator from a producing oil field in the western USA. The one liter sample was separated into four aliquots, one control and three test samples.
Adenosine triphosphate (ATP) is the energy source for all living organisms. Measurement of the ATP concentration in a water sample gives a good indication of the concentration of total biological organism concentration. A number of different companies including 3M and LuminUltra manufacture test kits. For this testing, the LuminUltra QBG test kit was employed.
Each of the non-control samples were dosed with one of three different biocides: MTC-10 (a 10% solution of methylenebis(thiocyanate) at 22 ppm active concentration; Diald 25 (a 25% solution of Glutaraldehyde) at 50 ppm active; and monochloramine (MCA) at a concentration of 7.5 ppm. After 30 and 60 minutes of exposure, ATP levels were measured and recorded.

[2] = Previous testing of kill time and cell penetration
Experimental: Previous testing had shown that the MCA was killing in 20 minutes what it took other biocides (i.e. MTC and Glutaraldehyde) to accomplish in four hours.

[3] = 0 min, initial reading of the bottle before dosing at 200 ppm
[4] = 180 min after dosing at 200 ppm
[5] = 240 min after dosing at 200 ppm

Row | Compound | ATP readings (anaerobes; [3]) | Percent reduction in ATP level (percent kill) (anaerobes; 30 min, 200 ppm) | ATP readings (anaerobes; 30 min after dosing at 200 ppm) | Percent reduction in ATP level (percent kill) (anaerobes; 60 min, 200 ppm) | ATP readings (anaerobes; 60 min after dosing at 200 ppm) | Percent reduction in ATP level (percent kill) (anaerobes; 180 min, 200 ppm) | ATP readings (anaerobes; [4]) | Percent reduction in ATP level (percent kill) (anaerobes; 240 min, 200 ppm) | ATP readings (anaerobes; [5]) | Effectiveness relative to MTC-10 on an activity percentage basis ([1]; 30 minutes and 60 minutes of exposure, Figure-3) | Performance better than Diald-25 on an activity percentage basis ([1]; 60 minutes of exposure, Figure-3) | Performance on a product percentage basis compared with Diald-25 ([1]; MCA 7.5 ppm vs Diald 25 50 ppm active, ATP after 30 and 60 minutes, Figure-2) | Performance on a product percentage basis compared with MTC-10 ([1]; MCA 7.5 ppm vs MTC-10 22 ppm active, ATP after 30 and 60 minutes, Figure-2) | Performance relative to Diald-25 on an activity percentage basis ([1]; first 30 minutes, Figure-3) | Cell penetration ([2]; compared with MTC) | Time to accomplish kill ([2]; previous testing) | Overall performance in kill study compared with MCA (anaerobes; 200 ppm, FIG. 4 / Table 1)
1 | NCl [MCA, monochloramine] | 321.4 | 92% | 26.05 | 94% | 19.2 | 95% | 17.4 | 96% | 11.9 | greater than 3 × | more than 20% | better than Diald-25 | as well as MTC-10 | ~2 × | better than for MTC | 20 min | –
2 | N#CSCSC#N [MTC, methylene bis(thiocyanate), reference compound] | 217.3 | – | – | – | – | – | 16.9 | 0.97% | 6.12 | – | – | – | – | – | – | – | performed slightly better
